Experimental data reported in patent US20160153002A1, “METHOD FOR CELL MEMBRANE PERMEATION FOR COMPOUND” (HitGen LTD., priority 2013, published 2016).
{NH2C12} = amino-(CH2)12 linker attached through a phosphate; {FITC} = fluorescein (FITC) label

The substances below were run on HepG2 cells (assay: Transmembrane transfer of FITC-tagged single-stranded or double-stranded DNA/RNA with X-tremeGENEsiRNA reagent, laser confocal microscopy). Details: 4 nmol, 6 h, laser confocal microscope, FIG. 5.
Type: cell-based
Protocol: 24 h before transfer, the HepG2 cells in the phase of logarithmic growth were digested with trypsin; a culture medium containing 10% serum was used for adjusting the cell density to 0.5×10^6 cells/mL; and the cells were inoculated again in a cell culture dish of 15 cm and cultured in a culture incubator containing 5% CO2 at 37° C. The cells may be used for experiments when the cell density reaches 60% to 70% 24 h later.
4 nmol of synthesized single-stranded or double-stranded DNA/RNA fragments in different sequences was added to a sterile centrifuge tube (tube A) of 15 mL, respectively, and uniformly mixed with Opti-MEM in a corresponding volume, with a total volume of 2 mL; the X-tremeGENEsiRNA reagent was shaken gently, and 160 μL of X-tremeGENEsiRNA reagent was mixed with 1.84 mL of Opti-MEM in another tube (tube B); and the solution in the tube A was mixed with the solution in the tube B, the mixture was slightly triturated by a pipette and incubated for 20 min at room temperature.
6 mL of RPMI-1640 serum-free culture medium was added to the mixture and mixed uniformly; the primary culture medium in the HepG2 cell culture dish was discarded, and slightly triturated with RPMI-1640 serum-free culture medium once; and then, the mixture was moved into the HepG2-PT cell culture dish, and cultured in a culture incubator containing 5% CO2 at 37° C. 6 h later, the positioning of the DNA/RNA in the cells was observed by a laser confocal microscope.

| Substance | positioning of the DNA/RNA in the cells (transfer into cells) |
| --- | --- |
| 5′-NH2—(CH2)12—PO4-A3-3′-FITC [polyA of 38 bp] | transferred into cells by X-tremesiRNA, with most of them into the cytoplasm and a few of them into the cell nucleus |
| double-stranded random sequence fragments of 19 bp: duplex of 5′-NH2-(CH2)12-PO4-TGGGCTGGCCAAACTGCTG-3′-FITC with 3′-ACCCGACCGGTTTGACGAC-5′ | transferred into cells by X-tremesiRNA, with most of them into the cytoplasm and a few of them into the cell nucleus |
| 5′-NH2—(CH2)12—PO4-A19-3′-FITC [polyA of 19 bp] | transferred into cells by X-tremesiRNA, with most of them into the cytoplasm and a few of them into the cell nucleus |
| 5′-NH2—(CH2)12—PO4-TGGGCTGGCCAAACTGCTG-3′-FITC (DNA, 5' {NH2C12}, 3' {FITC}, backbone and methylation of C not given here) | transferred into cells by X-tremesiRNA, with most of them into the cytoplasm and a few of them into the cell nucleus |
| 5′-NH2—(CH2)12—PO4-A5-3′-FITC [polyA of 5 bp] | transferred into cells by X-tremesiRNA, with most of them into the cytoplasm and a few of them into the cell nucleus |
